This is an account of results in article PMC11965977, “Selective Antiproliferative and Apoptotic Effects of 2,6‐Diketopiperazines on MDA‐MB‐231 Triple‐Negative Breast Cancer” (Chemical Biology & Drug Design, 2025).

Type in all cases: cell-based
The test system of data set [1] is MDA‐MB‐231 triple‐negative breast cancer cells. In words: Antiproliferative activity by MTT assay on MDA‐MB‐231 cell line. To be noted: Homo sapiens, 24 h treatment, 1% DMSO, mean ± standard deviation of three separate determinations, read-out: IC50 of inhibitory activity on MDA‐MB‐231 triple‐negative breast cancer cells. The protocol:
The antiproliferative activity of 2,6‐diketopiperazines 1, stereoisomers (S)‐2a‐14a, and (R)‐2b‐4b, 6b‐8b, and 11b‐14b was evaluated by the MTT assay on the MDA‐MB‐231 cell line using TSA as positive control at 50 μM. […] Compounds 1 and both (S) and (R) enantiomers reveal differences in their inhibitory effects.
(§1) Cell lines of the MDA‐MB‐231 of TNBC and VERO from healthy kidney cells used in this work were donated by ‘National Institute of Cancerology of the Ministry of Health’ from Mexico. MDA‐MB‐231 and Vero cells preserved at −70°C in DMEM F12 medium Gibco, 10% FBS, 5% DMSO, and 5% glycerol were thawed at 37°C and resuspended in DMEM F12 medium, supplemented with 10% FBS and antibiotic (penicillin 100 UI/mL, streptomycin 100 μg/mL and amphotericin 250 μg/mL) and then centrifuged at 2000 rpm for 10 min. The supernatant was removed, and the cells were resuspended in DMEM F12 medium, supplemented with 10% FBS and antibiotic, seeded in 25 cm^2 culture flasks Corning, and incubated at 37°C with 5% CO2 until at least 90% confluence was reached.
(§2) The MTT assay was used to measure metabolically active cells. Cells were seeded into 96‐well microtiter plates Corning at […] in 100 μL of DMEM‐F12 medium supplemented with 10% FBS and antibiotic Gibco (penicillin 100 IU/mL, streptomycin 100 μg/mL and amphotericin 250 μg/mL). After reaching confluence, cells were treated for 24 h with compounds 1, (S)‐2–14 and (R)‐2–4, 6–8, 11–14 stereoisomers, at concentrations of […], 0.00229, 0.0073, 0.0243, 0.081, 0.27, 0.9, 3.0, 10.0, and 12.0 mM at 1% DMSO, with compounds 1, (S)‐2a, ‐4a, and ‐5a at concentrations of 0.00066, 0.00229, 0.0073, 0.0243, 0.081, 0.27, 0.9, 3.0,10.0, and 12 mM at 1% DMSO, using DMSO 1% in DMEM F12 as the negative control and TSA as the positive control at 50 μM (Sanaei and Kavoosi [2020]). Post‐treatment, cell viability was measured by the conventional MTT dye‐reduction assay. Thus, 20 μL of MTT reagent (5 mg/mL) in PBS 1X was added to each well and incubated at 37 °C for 4 h. Viable cells with active mitochondria reduced the MTT to an insoluble purple formazan precipitate that was solubilized with the subsequent addition of 50 μL of DMSO. The formazan dye was measured spectrophotometrically using a microplate reader Molecular Devices. The cytotoxic impact of each treatment was quantified by determining cell viability as a percentage relative to untreated control cells, referred to as the percentage of control. This is calculated using the formula: [(A595 or A570 nm reading of treated cells)/(A595 or A570 nm reading of untreated cells)] × 100 (Mosmann [1983]; Plumb [1999]). All assays were performed in triplicate. Cell proliferation percentages relative to growth control cells were calculated, and inhibitory concentration 50 (IC50) values were calculated using a regression analysis of the concentration/antiproliferative activity ratio and analyzed using the statistical package prism (Graph‐Pad Software, San Diego, CA, USA).
Background: Tetrazolium assays rely on reduction of a dye to a coloured formazan, in cell work by metabolically active cells.

Data set [2] in a line: Cytotoxicity by MTT assay on healthy Vero kidney cell line. The note with it: African green monkey, Vero kidney cells (healthy), even at 12 mM concentrations (data not shown). The protocol:
(§3) Compounds 1, (S)‐2a, −4a, and ‐5a presented the lowest IC50 values of all the compounds tested (see Table 1), so it was interesting to investigate their toxicity in healthy cells.
as §1, §2

A further data set relates to Vero kidney cell line. The data set is described as above. The note with it: concentrations 0.00066 to 12 mM. The procedure:
as §3, §1, §2

A further data set relates to MDA‐MB‐231 cell line. In words: Apoptotic induction by Annexin V‐FITC/7AAD flow cytometry on MDA‐MB‐231 cell line. The note with it: MDA‐MB‐231, compound at its IC50 concentration. The text has this:
This work presents the apoptotic induction of the 2,6‐DKPs 1, (S)‐stereoisomers 2a to 6a derived from Gly, Ala, Val, Leu, Ile, and Pro α‐amino acids, respectively; as well as 9a to 14a derived from Tyr, Tyr (where the OH group is protected with an acetamide group), Ser, Thr, Met, and Trp α‐amino acids, respectively on the MDA‐MB‐231 cell line by flow cytometry. In this assay, 1% DMSO was used as a negative control and TSA as a positive control (Figure 2). The inhibition of proliferation may be due, among other mechanisms, to arrest in the cell cycle, and/or to an induction of cell death. In the second case, it is important to differentiate whether this death is necrotic inflammatory or apoptotic non‐inflammatory, which is desirable for anti‐cancer agents. […]
FIGURE 5 Flow Cytometry Analysis Strategy. […] A total of 5000/seg events were analyzed for each group.
Assays were performed using the commercial kit Annexin V labeled with the fluorochrome fluorescein isothiocyanate (FITC) BD Biosciences. […] After incubation time, the quantification of MDA‐MB‐231 cells was performed by flow cytometry with a FITC and 7AAD signal detector (FL1) and (FL3) on a FACS aria (Becton Dickinson). 5000/seg events were analyzed. Apoptotic induction percentages were calculated (Graph‐Pad Software, San Diego, CA, USA).

As a reminder, the IC50 is the midpoint of a concentration-inhibition curve. On to `C[C@H]1NCC(=O)NC1=O` [(R)‐2b], for which, in data set [1], the IC50 stood at 21 µM.

As for `CC(C)[C@H]1NCC(=O)NC1=O` [(R)‐3b], the IC50 in data set [1] worked out at 822 ± 1350 µM.

As to `CC(C)C[C@H]1NCC(=O)NC1=O` [(R)‐4b], the IC50 in data set [1] was 265 µM.

Turning to `O=C1CN2CCC[C@@H]2C(=O)N1` [(R)‐6b], in data set [1], the IC50 came to 584 ± 1010 µM.

Take `O=C1CN[C@H](Cc2ccccc2)C(=O)N1` [(R)‐7b]: the IC50 in data set [1] is 2150 ± 202 µM.

`O=C1CN[C@H](Cc2ccc(OCc3ccccc3)cc2)C(=O)N1` [(R)‐8b]: the IC50 in data set [1] is 3640 ± 1220 µM.

For `O=C1CN[C@H](CO)C(=O)N1` [(R)‐11b], in data set [1], the IC50 was found to be 801 ± 208 µM.

In the case of `CC(O)[C@H]1NCC(=O)NC1=O` (stereo partly drawn) [(R)‐12b], the concentration for half-maximal inhibition (IC50) in data set [1] turned out to be 1720 ± 85 µM.

`CSCC[C@H]1NCC(=O)NC1=O` [(R)‐13b]: in data set [1], the half-maximal inhibitory concentration (IC50) turned out to be 1310 ± 284 µM.

With `O=C1CN[C@H](Cc2c[nH]c3ccccc23)C(=O)N1` [(R)‐14b], in data set [1], the half-maximal inhibitory concentration (IC50) is 357 ± 190 µM.

Broadly, the viability is the share of living cells, or the viability signal relative to a control. Take `C[C@@H]1NCC(=O)NC1=O` [(S)‐2a]: in data set [1], the IC50 came out at 4.6 ± 0.169 µM. In data set [2], this compound came in with a viability at 24 h, 12 mM of 100%. For the same compound, the “Toxicity on Vero kidney cell line (in words)” value (“Toxicity” for short) with Vero kidney cell line is “did not exhibit toxicity”.

For the compound `CC(C)[C@@H]1NCC(=O)NC1=O` [(S)‐3a], in data set [1], the 50% inhibitory concentration (IC50) was determined as 17 µM.

As for `CC(C)C[C@@H]1NCC(=O)NC1=O` [(S)‐4a], the IC50 in data set [1] was found to be 5.5 ± 0.235 µM. Further, the viability at 24 h, 12 mM in data set [2] was determined as 100%. Besides, in the data set with Vero kidney cell line, the “Toxicity” value is listed as “did not exhibit toxicity”.

On to `CCC(C)[C@@H]1NCC(=O)NC1=O` (stereo partly drawn) [(S)‐5a], for which, in data set [1], the IC50 was determined as 6.8 ± 0.028 µM. The viability at 24 h, 12 mM in data set [2] amounted to 100%. In addition, in the data set on Vero kidney cell line, the “Toxicity” value is given as “did not exhibit toxicity”.

As to `O=C1CN2CCC[C@H]2C(=O)N1` [(S)‐6a], the half-maximal inhibitory concentration (IC50) in data set [1] came to 1020 ± 167 µM.

On to `O=C1CN[C@@H](Cc2ccccc2)C(=O)N1` [(S)‐7a], for which, in data set [1], the IC50 turned out to be 155 ± 322 µM.

Turning to `O=C1CN[C@@H](Cc2ccc(OCc3ccccc3)cc2)C(=O)N1` [(S)‐8a], the IC50 in data set [1] came out at 4940 ± 733 µM.

Take `O=C1CN[C@@H](Cc2ccc(O)cc2)C(=O)N1` [(S)‐9a]: the half-maximal inhibitory concentration (IC50) in data set [1] amounted to 1669 ± 11 µM.

Regarding `NC(=O)COc1ccc(C[C@@H]2NCC(=O)NC2=O)cc1` [(S)‐10a], in data set [1], the IC50 is 469 ± 860 µM.

Consider `O=C1CN[C@@H](CO)C(=O)N1` [(S)‐11a], for which the IC50 in data set [1] was found to be 49 ± 26 µM.

On to `CC(O)[C@@H]1NCC(=O)NC1=O` (stereo partly drawn) [(S)‐12a], for which the concentration for half-maximal inhibition (IC50) in data set [1] worked out at 2100 ± 249 µM. In the data set with MDA‐MB‐231 cell line, the “Decrease in apoptotic induction at 48 h compared to the 24 h test” value was determined as 3%.

As for `CSCC[C@@H]1NCC(=O)NC1=O` [(S)‐13a], the IC50 in data set [1] is 978 ± 96 µM.

Take `O=C1CN[C@@H](Cc2c[nH]c3ccccc23)C(=O)N1` [(S)‐14a]: the 50% inhibitory concentration (IC50) in data set [1] worked out at 12 µM.

Turning to `O=C1CNCC(=O)N1` [Compound 1], the half-maximal inhibitory concentration (IC50) in data set [1] worked out at 4.6 ± 0.019 µM. In data set [2], this compound had a viability at 24 h, 12 mM of 100%. In the data set on Vero kidney cell line, the “Toxicity” value is “did not exhibit toxicity”.
